Counter-ions that a name gives are not always drawn.
These compounds were tested against D2 -receptor (Rattus norvegicus, UniProt P61169) (assay: Receptor binding test (3H-ADTN, rat striatal membranes)). Conditions: not given.
Parameters: species or system rats (Sprague Dawley)

Chain of D2 -receptor (P61169 whole entry): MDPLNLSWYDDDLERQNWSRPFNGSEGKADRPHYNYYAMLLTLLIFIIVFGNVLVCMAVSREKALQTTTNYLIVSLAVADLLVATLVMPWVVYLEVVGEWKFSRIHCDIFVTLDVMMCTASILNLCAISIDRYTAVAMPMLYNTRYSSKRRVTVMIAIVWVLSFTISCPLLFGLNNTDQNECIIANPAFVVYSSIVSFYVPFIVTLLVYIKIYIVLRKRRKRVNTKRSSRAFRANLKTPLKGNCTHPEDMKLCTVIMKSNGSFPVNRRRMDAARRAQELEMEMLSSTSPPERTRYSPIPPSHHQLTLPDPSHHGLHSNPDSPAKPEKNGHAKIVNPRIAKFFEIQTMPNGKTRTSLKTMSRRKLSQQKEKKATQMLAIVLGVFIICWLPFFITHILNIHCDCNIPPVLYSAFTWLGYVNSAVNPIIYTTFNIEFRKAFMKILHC

| Compound | Ki [nM] |
| --- | --- |
| Cc1nc(Nc2ccccc2)sc1CCCN1CC=C(c2ccccc2)CC1 [Example 3, 4-methyl-2-phenylamino-5-[3-(4-phenyl-1,2,3,6-tetrahydropyridyl)-propyl]-thiazole dihydrochloride] | 4 |
| COc1ccc(-c2nc(N)sc2CCN2CC=C(c3ccccc3)CC2)cc1 [Example 4, 2-Amino-4-(4-methoxyphenyl)-5-[2-(4-phenyl-1,2,3,6-tetrahydropyridyl)-ethyl]-thiazole] | 16 |
| Nc1nc(-c2cccs2)c(CCN2CC=C(c3ccccc3)CC2)s1 [Example 5, 2-Amino-5-[2-(4-phenyl-1,2,3,6-tetrahydropyridyl)-ethyl]-4-thien-2-ylthiazole dihydrochloride] | 10 |
| Nc1nc(-c2ccccc2)c(CCN2CC=C(c3ccccc3)CC2)s1 [Example 8, 2-Amino-4-phenyl-5-[2-(4-phenyl-1,2,3,6-tetrahydropyridyl)-ethyl]-thiazole tartrate] | 10 |
| Cc1nc(N)sc1CCCN1CC=C(c2ccccc2)CC1 [Example 11, 2-Amino-4-methyl-5-[3-(4-phenyl-1,2,3,6-tetrahydropyridyl)-propyl]-thiazoletartrate] | 10 |

Same assay, conditions: displacement of 1 nM 3H-ADTN, rat striatum membranes, 0.1 μM SCH 23390, 40 min at 25° C.; read-out: Ki

| Compound | Ki [nM] |
| --- | --- |
| 2-Methylamino-4-methyl-5-[3-(4-phenylpiperazin-1-yl)-propyl]-thiazole dihydrochloride [Example 1] | 6 |
| Cc1nc(N)sc1CCCN(C)CCc1ccccc1 [Example 2, 2-Amino-4-methyl-5-[3-(N-methyl-N-phenethylamino)-propyl]-thiazole fumarate] | 20 |
| Nc1nc(-c2ccccc2)c(CCCN2CCN(c3ccccc3)CC2)s1 [Example 9, 2-Amino-4-phenyl-5-[3-(4-phenylpiperazin-1-yl)-propyl]-thiazole trihydrochloride] | 14 |
| CCCN(CCCc1sc(N)nc1C)CCc1ccccc1 [Example 10, 2-Amino-4-methyl-5-[3-(N-phenethyl-N-propylamino)-propyl]-thiazole fumarate] | 10 |
| Nc1nc(-c2ccccc2)c(CCCN2CCN(c3ncccn3)CC2)s1 [Example 13, 2-Amino-4-phenyl-5-[3-(4-pyrimid-2-ylpiperazin-1-yl)-propyl]-thiazole tartrate] | 10 |
| Nc1nc(-c2ccccc2)c(CCCN2CCN(c3ccccn3)CC2)s1 [Example 14, 2-Amino-4-phenyl-5-[3-(4-pyrid-2-ylpiperazin-1-yl)-propyl]tartrate] | 15 |
| Nc1nc(-c2ccccc2)c(CCCN2CCN(c3ccccc3Cl)CC2)s1 [Example 18, 2-Amino-5-[3-(4-(2-chlorophenyl)-piperazin-1-yl)-propyl]-4-phenylthiazole tartrate] | 25 |
| Nc1nc(-c2ccccc2)c(CCN2CCN(c3ccccc3[N+](=O)[O-])CC2)s1 [Example 22, 2-Amino-5-[2-(4-(2-nitrophenyl)-piperazin-1-yl)-ethyl]-4-phenylthiazole tartrate] | 16 |
| CCCN(CCCc1sc(N)nc1-c1ccccc1)CCc1ccccc1 [Example 23, 2-Amino-4-phenyl-5-[3-(N-propyl-N-phenethylamino)-propyl]-thiazole dihydrochloride] | 20 |
| CCCN(CCCCc1sc(N)nc1C)CCc1ccccc1 [Example 25, 2-Amino-4-methyl-5-[4-(N-propyl-N-phenethylamino)-butyl]-thiazole dihydrochloride] | 4 |
